doi:10.1101/513044v1 (biorxiv, 2019)

Legend:
TaOR10 + TaORco = assay: two-electrode voltage clamp, Xenopus oocytes; assay type: cell-based, Toxorhynchites amboinensis; conditions: agonist; co-expressed with TaORco; -80 mV; 10^-10 to 10^-4 M
TaOR2 + TaORco = assay: two-electrode voltage clamp, Xenopus oocytes; assay type: cell-based, Toxorhynchites amboinensis; conditions: agonist; co-expressed with TaORco; -80 mV; 10^-10 to 10^-4 M

c1ccc2[nH]ccc2c1 [indole]
EC50 (TaOR10 + TaORco): 9160 nM
EC50 (TaOR2 + TaORco): 88 nM

Cc1c[nH]c2ccccc12 [skatole]
EC50 (TaOR10 + TaORco): 87 nM
EC50 (TaOR2 + TaORco): 1380 nM
